# According to ChEMBL document CHEMBL1799972, “Grandilodines A-C, biologically active indole alkaloids from Kopsia grandifolia” (J Nat Prod, 2011):
# How the values were obtained:
# [1] = tested on: KB/VJ300; experiment: Reversal of multidrug-resistance in vincristine-resistant human KB/VJ300 cells in presence of 0.1 ug/ml vincristine; type: functional, cell-based
# [2] = Cytotoxicity in vincristine-resistant human KB/VJ300 cells in presence of 0.1 ug/ml vincristine; type: cell-based
# [3] = tested on: KB; experiment: Cytotoxicity against vincristine-sensitive human KB cells in presence of 0.1 ug/ml vincristine; type: cell-based
IC50 [1] [mg/L],Compound,IC50 [2] [mg/L],IC50 [3] [mg/L]
4.35,COC(=O)[C@@H]1C[C@]23CCCN2CC[C@]2(C(=O)OC)c4ccccc4N(C(=O)OC)[C@]12CC3 [GRANDILODINE A],,
4.11,COC(=O)N1c2ccccc2[C@]23CCN4C(=O)C=C[C@]45CC[C@]12[C@@H](C5)C(=O)O3 [GRANDILODINE C],,
0.39,COC(=O)N1c2ccccc2[C@]23CCN4CC=C[C@]45CC[C@]12[C@@H](C5)C(=O)O3 [LAPIDILECTINE B],,
,CC[C@]1(O)C[C@H]2CN(CCc3c([nH]c4ccccc34)[C@@](C(=O)OC)(c3cc4c(cc3OC)N(C=O)[C@H]3[C@@](O)(C(=O)OC)[C@H](OC(C)=O)[C@]5(CC)C=CCN6CC[C@]43[C@@H]65)C2)C1 [VINCRISTINE],> 25,> 25
